Data: article PMC12693419, “Design, Synthesis, Biological Evaluation, and In Silico Studies of Novel Multitarget Cinnamic Acid Hybrids” (Molecules, 2025)

What was measured:
bovine serum albumin = target: T1, bovine serum albumin (Bos taurus, UniProt P02769); assay: In vitro inhibition of albumin denaturation; settings: heat denaturation, 60 °C 10 min
T1 construct: bovine serum albumin solution (fraction V); purchased Merck and Sigma-Aldrich; host or cells: bovine serum (fraction V)
Experimental: The ability of a compound to inhibit the thermal denaturation of albumin is considered an indicator of anti-inflammatory activity. Heat exposure simulates conditions of cellular stress or inflammation, during which protein and tissue damage occur. Certain substances can protect proteins from denaturation upon heating by stabilizing their structure and preventing aggregation and precipitation.
Inhibition of albumin denaturation was measured following the reported method. In a test tube, 1 mL of bovine serum albumin solution (fraction V, 1% w/v in phosphate buffer, pH 7.4) and 100 μL of the test compound solution were added sequentially. The mixture was incubated at 37 °C for 15 min, followed by heating at 60 °C for 10 min. After cooling to room temperature, the absorbance was measured at 660 nm. DMSO was used as the blank, and the results were compared to acetylsalicylic acid, which served as the reference compound (Table 6).

[1] = In vitro inhibition of linoleic acid lipid peroxidation (AAPH); settings: 100 μM; anti-lipid peroxidation
Source text: In the present study, the aim was to evaluate the anti-lipid peroxidation activities of the synthesized compounds 5a–i, 6a–i, 9a–i, and 11 and compare their efficacy to that of Trolox, a well-known antioxidant. Using the water-soluble compound 2,2′-azobis(2-amidinopropane) hydrochloride (AAPH), peroxyl radicals are generated through spontaneous thermal decomposition in vitro. This experimental setup imitated the lipid peroxidation processes occurring in cells due to radical activity allowing the investigation of the effectiveness of the tested compounds under conditions resembling cellular oxidative stress.
An in vitro assay was performed following previously established protocols. The compound 2,2′-Azobis(2-methylpropionamidine) dihydrochloride (AAPH) was used as a controlled source of thermally generated alkylperoxy free radicals. The formation of conjugated diene hydroperoxides through the oxidation of sodium linoleate in an aqueous dispersion at 37 °C was measured by monitoring absorbance at 234 nm. The results were compared with the reference compound, Trolox (93%) (Table 6).

[2] = target: T2, soybean lipoxygenase isoenzyme-1 (SLOX-1) (Glycine max, UniProt P08170); assay: In vitro inhibition of soybean lipoxygenase; type: biochemical; settings: for LOX Inh. IC50: pH 9.0; for IC50: pH 9.0, read-out: LOX Inh. IC50
T2 construct: purchased Merck and Sigma-Aldrich
T2 sequence (P08170 1-839): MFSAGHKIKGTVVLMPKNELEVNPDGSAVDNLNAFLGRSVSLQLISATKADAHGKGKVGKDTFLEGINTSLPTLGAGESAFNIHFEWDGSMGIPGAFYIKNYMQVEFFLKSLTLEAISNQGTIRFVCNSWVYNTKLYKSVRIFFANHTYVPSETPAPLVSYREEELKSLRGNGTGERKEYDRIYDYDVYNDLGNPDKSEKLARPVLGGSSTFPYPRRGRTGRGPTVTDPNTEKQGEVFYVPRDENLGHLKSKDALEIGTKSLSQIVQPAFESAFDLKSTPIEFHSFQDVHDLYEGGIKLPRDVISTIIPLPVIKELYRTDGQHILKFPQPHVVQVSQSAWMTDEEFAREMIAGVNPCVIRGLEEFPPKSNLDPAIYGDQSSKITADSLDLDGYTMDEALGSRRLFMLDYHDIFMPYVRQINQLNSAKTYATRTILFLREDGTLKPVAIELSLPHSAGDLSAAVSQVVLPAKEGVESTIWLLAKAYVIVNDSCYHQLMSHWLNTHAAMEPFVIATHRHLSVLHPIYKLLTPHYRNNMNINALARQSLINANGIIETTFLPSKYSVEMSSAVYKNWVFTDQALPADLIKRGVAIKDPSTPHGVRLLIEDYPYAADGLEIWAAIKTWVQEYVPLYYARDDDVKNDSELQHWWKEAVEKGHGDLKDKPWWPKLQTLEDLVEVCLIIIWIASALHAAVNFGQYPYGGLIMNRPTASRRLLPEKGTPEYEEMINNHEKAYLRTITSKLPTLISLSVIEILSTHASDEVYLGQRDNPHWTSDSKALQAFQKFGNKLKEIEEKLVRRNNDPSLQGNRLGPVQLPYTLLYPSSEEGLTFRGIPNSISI
Experimental: In vitro anti-LOX activities were evaluated using soybean lipoxygenase isoenzyme-1 (SLOX-1), a commonly used model for mammalian LOXs.
An in vitro study was conducted following a previously reported method. The tested compounds were dissolved in DMSO (100 µM) and incubated at room temperature with 0.1 mL of sodium linoleate as the substrate and 0.2 mL of soybean lipoxygenase solution in Tris-HCl buffer (pH 9.0).

T1 sequence (P02769 25-607): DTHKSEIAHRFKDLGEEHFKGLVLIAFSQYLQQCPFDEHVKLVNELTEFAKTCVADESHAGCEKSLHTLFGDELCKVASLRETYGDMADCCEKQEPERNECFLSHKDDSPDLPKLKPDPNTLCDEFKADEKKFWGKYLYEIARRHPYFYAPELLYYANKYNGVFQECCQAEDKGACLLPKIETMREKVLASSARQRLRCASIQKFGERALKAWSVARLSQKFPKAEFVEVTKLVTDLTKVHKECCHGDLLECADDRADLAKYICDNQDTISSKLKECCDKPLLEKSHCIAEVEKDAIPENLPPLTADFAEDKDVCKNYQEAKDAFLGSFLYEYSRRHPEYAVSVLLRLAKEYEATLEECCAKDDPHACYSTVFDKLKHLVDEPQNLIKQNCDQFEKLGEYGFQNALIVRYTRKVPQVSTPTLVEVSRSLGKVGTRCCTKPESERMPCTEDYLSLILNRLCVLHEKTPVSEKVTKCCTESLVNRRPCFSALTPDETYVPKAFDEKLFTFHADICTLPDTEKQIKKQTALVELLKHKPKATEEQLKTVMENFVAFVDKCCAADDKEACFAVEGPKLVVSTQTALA

CC(=O)Oc1ccccc1C(=O)O [Acetylsalicylic acid, acetylsalicylic acid, reference compound]
Albumin (inhibition of albumin denaturation) (bovine serum albumin): 31%

O=C(O)/C=C/c1ccccc1 [Cinnamic acid]
AAPH Inh. at 100 μΜ [1]: 78%

CC(=O)c1ccc(NC(=O)COC(=O)C=Cc2ccccc2)cc1 [Compound 5a, 2-((4-Acetylphenyl)amino)-2-oxoethyl Cinnamate]
AAPH Inh. at 100 μΜ [1]: 31.9%
LOX Inh. IC50 [2]: no

CC(=O)c1ccc(NC(=O)COC(=O)/C=C/c2cccc3ccccc23)cc1 [Compound 5b, 2-((4-Acetylphenyl)amino)-2-oxoethyl (E)-3-(naphthalen-1-yl)acrylate]
AAPH Inh. at 100 μΜ [1]: inactive and no
IC50 [2]: 57.5 µM

CC(=O)c1ccc(NC(=O)COC(=O)/C=C/c2cccs2)cc1 [Compound 5c, 2-((4-Acetylphenyl)amino)-2-oxoethyl (E)-3-(thiophen-2-yl)acrylate]
AAPH Inh. at 100 μΜ [1]: 29%
LOX Inh. IC50 [2]: no

CC(=O)c1ccc(NC(=O)COC(=O)/C=C/c2ccco2)cc1 [Compound 5d, 2-((4-Acetylphenyl)amino)-2-oxoethyl (E)-3-(furan-2-yl)acrylate]
AAPH Inh. at 100 μΜ [1]: no
LOX Inh. IC50 [2]: no

CC(=O)c1ccc(NC(=O)COC(=O)/C=C/c2cc3ccccc3s2)cc1 [Compound 5e, 2-((4-Acetylphenyl)amino)-2-oxoethyl (E)-3-(benzo[b]thiophen-2-yl)acrylate]
AAPH Inh. at 100 μΜ [1]: no
LOX Inh. IC50 [2]: no

CC(=O)c1ccc(NC(=O)COC(=O)/C=C/c2cc3ccccc3o2)cc1 [Compound 5f, 2-((4-Acetylphenyl)amino)-2-oxoethyl (E)-3-(benzofuran-2-yl)acrylate]
AAPH Inh. at 100 μΜ [1]: 39%
IC50 [2]: 80 µM

CC(=O)c1ccc(NC(=O)COC(=O)/C(=C/c2ccccc2)c2ccccc2)cc1 [Compound 5g, 2-((4-Acetylphenyl)amino)-2-oxoethyl (E)-2,3-diphenylacrylate]
AAPH Inh. at 100 μΜ [1]: 94.7%
LOX Inh. IC50 [2]: no

CC(=O)c1ccc(NC(=O)COC(=O)/C(=C/c2cccc3ccccc23)c2ccccc2)cc1 [Compound 5h, 2-((4-Acetylphenyl)amino)-2-oxoethyl (E)-3-(naphthalen-1-yl)-2-phenylacrylate]
AAPH Inh. at 100 μΜ [1]: 75.8%
IC50 [2]: 33 µM

CC(=O)c1ccc(NC(=O)COC(=O)/C(=C/c2cccs2)c2ccccc2)cc1 [Compound 5i, 2-((4-Acetylphenyl)amino)-2-oxoethyl (E)-2-phenyl-3-(thiophen-2-yl)acrylate]
AAPH Inh. at 100 μΜ [1]: 77%
LOX Inh. IC50 [2]: no

Cc1c(C)c2c(c(C)c1O)CCC(C)(C(=O)O)O2 (stereo not drawn) [Trolox, reference compound]
AAPH Inh. at 100 μΜ [1]: 93%
